Data reported in ChEMBL document CHEMBL1201861, “Genomics of Drug Sensitity in Cancer screening data, Wellcome Trust Sanger Institute”.

How the values were obtained:
Assay in all cases: cells
SNU-C2B = assay type: functional, cell-based, Homo sapiens; conditions: Homo sapiens, SNU-C2B;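 note: cell viability readout used to measure compound-driven suppression of SNU-C2B cell proliferation, IC50 marking half-maximal growth inhibition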
Description: SANGER: Inhibition of human SNU-C2B cell growth in a cell viability assay.

RCC10RGB = assay type: functional, cell-based, Homo sapiens; conditions: Homo sapiens, RCC10RGB;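 note: growth inhibition of human RCC10RGB cells, read out by a cell viability assay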
Description: SANGER: Inhibition of human RCC10RGB cell growth in a cell viability assay.

HuTu80 = assay type: functional, cell-based, Homo sapiens, HUTU-80; conditions: Homo sapiens, HuTu80;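 note: growth inhibition of HuTu80 human cells, determined with a cell viability readout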
Description: SANGER: Inhibition of human HUTU-80 cell growth in a cell viability assay.

CW-2 = assay type: functional, cell-based, Homo sapiens; conditions: Homo sapiens, CW-2;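 note: growth inhibition of CW-2 cells, read out by a cell viability assay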
Description: SANGER: Inhibition of human CW-2 cell growth in a cell viability assay.

CTB-1 = assay type: functional, cell-based, Homo sapiens; conditions: Homo sapiens, CTB-1
Description: SANGER: Inhibition of human CTB-1 cell growth in a cell viability assay.

LNCaP-Clone-FGC = assay type: functional, cell-based, Homo sapiens; conditions: Homo sapiens, LNCaP-Clone-FGC
Description: SANGER: Inhibition of human LNCaP-Clone-FGC cell growth in a cell viability assay.

L-363 = assay type: functional, cell-based, Homo sapiens; conditions: Homo sapiens, L-363
Description: SANGER: Inhibition of human L-363 cell growth in a cell viability assay.

KLE = assay type: functional, cell-based, Homo sapiens; conditions: Homo sapiens, KLE;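 note: growth inhibition of human KLE cells, read out with a cell viability assay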
Description: SANGER: Inhibition of human KLE cell growth in a cell viability assay.

Becker = assay type: functional, cell-based, Homo sapiens; conditions: Homo sapiens, Becker;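 note: growth inhibition of Becker cells, read out with a cell viability assay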
Description: SANGER: Inhibition of human Becker cell growth in a cell viability assay.

NCI-H526 = assay type: functional, cell-based, Homo sapiens; conditions: Homo sapiens, NCI-H526;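 note: growth inhibition of the human NCI-H526 cell line, measured by a cell viability assay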
Description: SANGER: Inhibition of human NCI-H526 cell growth in a cell viability assay.

BE-13 = assay type: functional, cell-based, Homo sapiens; conditions: Homo sapiens, BE-13;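 note: growth inhibition of human BE-13 cells, measured with a cell viability assay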
Description: SANGER: Inhibition of human BE-13 cell growth in a cell viability assay.

NMC-G1 = assay type: functional, cell-based, Homo sapiens; conditions: Homo sapiens, NMC-G1;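 note: growth inhibition of the NMC-G1 cell line, measured with a cell viability read-out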
Description: SANGER: Inhibition of human NMC-G1 cell growth in a cell viability assay.

HAL-01 = assay type: functional, cell-based, Homo sapiens; conditions: Homo sapiens, HAL-01;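 note: growth inhibition of human HAL-01 cells, read out with a cell viability assay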
Description: SANGER: Inhibition of human HAL-01 cell growth in a cell viability assay.

D-263MG = assay type: functional, cell-based, Homo sapiens; conditions: Homo sapiens, D-263MG
Description: SANGER: Inhibition of human D-263MG cell growth in a cell viability assay.

ML-2 = assay type: functional, cell-based, Homo sapiens; conditions: Homo sapiens, ML-2;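 note: growth inhibition of ML-2 cells, measured with a cell viability readout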
Description: SANGER: Inhibition of human ML-2 cell growth in a cell viability assay.

8-MG-BA = assay type: functional, cell-based, Homo sapiens; conditions: Homo sapiens, 8-MG-BA;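 note: growth inhibition of 8-MG-BA cells, read out with a cell viability assay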
Description: SANGER: Inhibition of human 8-MG-BA cell growth in a cell viability assay.

C8166 = assay type: functional, cell-based, Homo sapiens; conditions: Homo sapiens, C8166;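 note: growth inhibition of human C8166 cells measured by a cell viability assay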
Description: SANGER: Inhibition of human C8166 cell growth in a cell viability assay.

TE-1 = assay type: functional, cell-based, Homo sapiens; conditions: Homo sapiens, TE-1;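 note: growth inhibition of the human TE-1 cell line, read out with a cell viability assay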
Description: SANGER: Inhibition of human TE-1 cell growth in a cell viability assay.

IA-LM = assay type: functional, cell-based, Homo sapiens; conditions: Homo sapiens, IA-LM;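 note: cell viability assay measuring growth inhibition of human IA-LM cells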
Description: SANGER: Inhibition of human IA-LM cell growth in a cell viability assay.

SK-NEP-1 = assay type: functional, cell-based, Homo sapiens; conditions: Homo sapiens, SK-NEP-1;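 note: growth inhibition of human SK-NEP-1 cells, read out by a cell viability assay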
Description: SANGER: Inhibition of human SK-NEP-1 cell growth in a cell viability assay.

RH-1 = assay type: functional, cell-based, Homo sapiens; conditions: Homo sapiens, RH-1;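 note: growth inhibition of human RH-1 cells, read out with a cell viability assay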
Description: SANGER: Inhibition of human RH-1 cell growth in a cell viability assay.

LU-139 = assay type: functional, cell-based, Homo sapiens; conditions: Homo sapiens, LU-139
Description: SANGER: Inhibition of human LU-139 cell growth in a cell viability assay.

J-RT3-T3-5 = assay type: functional, cell-based, Homo sapiens; conditions: Homo sapiens, J-RT3-T3-5;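 note: cell viability assay measuring growth inhibition of human J-RT3-T3-5 cells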
Description: SANGER: Inhibition of human J-RT3-T3-5 cell growth in a cell viability assay.

DMS-79 = assay type: functional, cell-based, Homo sapiens; conditions: Homo sapiens, DMS-79;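 note: growth inhibition measured with a cell viability assay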
Description: SANGER: Inhibition of human DMS-79 cell growth in a cell viability assay.

MOLT-16 = assay type: functional, cell-based, Homo sapiens; conditions: Homo sapiens, MOLT-16;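 note: growth inhibition of human MOLT-16 cells, read out with a cell viability assay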
Description: SANGER: Inhibition of human MOLT-16 cell growth in a cell viability assay.

KARPAS-45 = assay type: functional, cell-based, Homo sapiens; conditions: Homo sapiens, KARPAS-45;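 note: inhibition of cell line growth, read out through a viability assay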
Description: SANGER: Inhibition of human KARPAS-45 cell growth in a cell viability assay.

TE-6 = assay type: functional, cell-based, Homo sapiens; conditions: Homo sapiens, TE-6;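 note: growth inhibition of TE-6 cells, read out with a cell viability assay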
Description: SANGER: Inhibition of human TE-6 cell growth in a cell viability assay.

COLO-684 = assay type: functional, cell-based, Homo sapiens; conditions: Homo sapiens, COLO-684
Description: SANGER: Inhibition of human COLO-684 cell growth in a cell viability assay.

RPMI-8866 = assay type: functional, cell-based, Homo sapiens; conditions: Homo sapiens, RPMI-8866
Description: SANGER: Inhibition of human RPMI-8866 cell growth in a cell viability assay.

HCC1187 = assay type: functional, cell-based, Homo sapiens; conditions: Homo sapiens, HCC1187;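 note: growth inhibition of HCC1187 cells, read out with a cell viability assay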
Description: SANGER: Inhibition of human HCC1187 cell growth in a cell viability assay.

MFM-223 = assay type: functional, cell-based, Homo sapiens; conditions: Homo sapiens, MFM-223
Description: SANGER: Inhibition of human MFM-223 cell growth in a cell viability assay.

SK-N-FI = assay type: functional, cell-based, Homo sapiens; conditions: Homo sapiens, SK-N-FI;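 note: cell viability assay measuring growth inhibition of human SK-N-FI cells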
Description: SANGER: Inhibition of human SK-N-FI cell growth in a cell viability assay.

D-247MG = assay type: functional, cell-based, Homo sapiens; conditions: Homo sapiens, D-247MG
Description: SANGER: Inhibition of human D-247MG cell growth in a cell viability assay.

GOTO = assay type: functional, cell-based, Homo sapiens; conditions: Homo sapiens, GOTO;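 note: growth inhibition of GOTO cells, read out by a cell viability assay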
Description: SANGER: Inhibition of human GOTO cell growth in a cell viability assay.

LB373-MEL-D = assay type: functional, cell-based, Homo sapiens; conditions: Homo sapiens, LB373-MEL-D;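 note: growth inhibition of the cell line, read out in a cell viability assay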
Description: SANGER: Inhibition of human LB373-MEL-D cell growth in a cell viability assay.

NH-12 = assay type: functional, cell-based, Homo sapiens; conditions: Homo sapiens, NH-12;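 note: growth inhibition of NH-12 cells, read out with a cell viability assay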
Description: SANGER: Inhibition of human NH-12 cell growth in a cell viability assay.

BB65-RCC = assay type: functional, cell-based, Homo sapiens; conditions: Homo sapiens, BB65-RCC;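 note: growth inhibition of the cell line, measured with a cell viability assay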
Description: SANGER: Inhibition of human BB65-RCC cell growth in a cell viability assay.

JAR = assay type: functional, cell-based, Homo sapiens; conditions: Homo sapiens, JAR;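 note: growth inhibition of human JAR cells determined with a cell viability assay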
Description: SANGER: Inhibition of human JAR cell growth in a cell viability assay.

MEG-01 = assay type: functional, cell-based, Homo sapiens; conditions: Homo sapiens, MEG-01;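 note: growth inhibition of MEG-01 cells, read out by a cell viability assay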
Description: SANGER: Inhibition of human MEG-01 cell growth in a cell viability assay.

IST-MES1 = assay type: functional, cell-based, Homo sapiens; conditions: Homo sapiens, IST-MES1;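 note: growth inhibition of IST-MES1 cells, measured with a cell viability assay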
Description: SANGER: Inhibition of human IST-MES1 cell growth in a cell viability assay.

LS-123 = assay type: functional, cell-based, Homo sapiens; conditions: Homo sapiens, LS-123
Description: SANGER: Inhibition of human LS-123 cell growth in a cell viability assay.

ONS-76 = assay type: functional, cell-based, Homo sapiens; conditions: Homo sapiens, ONS-76;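 note: growth inhibition of human ONS-76 cells, read out with a cell viability assay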
Description: SANGER: Inhibition of human ONS-76 cell growth in a cell viability assay.

BV-173 = assay type: functional, cell-based, Homo sapiens; conditions: Homo sapiens, BV-173
Description: SANGER: Inhibition of human BV-173 cell growth in a cell viability assay.

COLO-824 = assay type: functional, cell-based, Homo sapiens; conditions: Homo sapiens, COLO-824
Description: SANGER: Inhibition of human COLO-824 cell growth in a cell viability assay.

KY821 = assay type: functional, cell-based, Homo sapiens; conditions: Homo sapiens, KY821;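 note: growth inhibition of human KY821 cells, read out by a cell viability assay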
Description: SANGER: Inhibition of human KY821 cell growth in a cell viability assay.

SNU-5 = assay type: functional, cell-based, Homo sapiens; conditions: Homo sapiens, SNU-5;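 note: cell viability readout used to measure growth inhibition in human NCI-SNU-5 cells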
Description: SANGER: Inhibition of human NCI-SNU-5 cell growth in a cell viability assay.

EW-11 = assay type: functional, cell-based, Homo sapiens; conditions: Homo sapiens, EW-11;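 note: growth inhibition of human EW-11 cells, measured with a cell viability assay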
Description: SANGER: Inhibition of human EW-11 cell growth in a cell viability assay.

`CCN(CC)CCNC(=O)c1c(C)[nH]c(/C=C2\C(=O)Nc3ccc(F)cc32)c1C` [SUNITINIB] showed an IC50 (SNU-C2B) of over 8000 nM, an IC50 (RCC10RGB) of over 8000 nM and an IC50 (HuTu80) of over 8000 nM. The IC50 (CW-2) was over 8000 nM, the IC50 (CTB-1) was over 8000 nM and the IC50 (LNCaP-Clone-FGC) was over 8000 nM. The IC50 (L-363) was 4810 nM, the IC50 (KLE) was over 8000 nM and the IC50 (Becker) was over 8000 nM. It also gave an IC50 (NCI-H526) of over 8000 nM, an IC50 (BE-13) of 3230 nM and an IC50 (NMC-G1) of over 8000 nM. The IC50 (HAL-01) was 2060 nM, the IC50 (D-263MG) was over 8000 nM and the IC50 (ML-2) was 2640 nM. For the same compound, the IC50 (8-MG-BA) was 6520 nM, the IC50 (C8166) was over 8000 nM and the IC50 (TE-1) was over 8000 nM. The IC50 (IA-LM) was over 8000 nM, the IC50 (SK-NEP-1) was 2600 nM and the IC50 (RH-1) was over 8000 nM. For the same compound, the IC50 (LU-139) was over 8000 nM, the IC50 (J-RT3-T3-5) was 6080 nM and the IC50 (DMS-79) was over 8000 nM. The IC50 (MOLT-16) was 631 nM, the IC50 (KARPAS-45) was 2490 nM and the IC50 (TE-6) was over 8000 nM. The IC50 (COLO-684) was over 8000 nM, the IC50 (RPMI-8866) was over 8000 nM and the IC50 (HCC1187) was over 8000 nM. It also gave an IC50 (MFM-223) of over 8000 nM, an IC50 (SK-N-FI) of over 8000 nM and an IC50 (D-247MG) of over 8000 nM. It also gave an IC50 (GOTO) of over 8000 nM, an IC50 (LB373-MEL-D) of over 8000 nM and an IC50 (NH-12) of over 8000 nM. The IC50 (BB65-RCC) was over 8000 nM, the IC50 (JAR) was 3990 nM and the IC50 (MEG-01) was 1840 nM. The IC50 (IST-MES1) was over 8000 nM, the IC50 (LS-123) was over 8000 nM and the IC50 (ONS-76) was over 8000 nM. The IC50 (BV-173) was 2340 nM, the IC50 (COLO-824) was over 8000 nM and the IC50 (KY821) was 2800 nM. The IC50 (SNU-5) was over 8000 nM and the IC50 (EW-11) was over 8000 nM.
Compound `Cc1ccc(-c2c(C(=O)CCl)n(CCCO)c3ncnc(N)c23)cc1` has an IC50 (SNU-C2B) of over 4000 nM, an IC50 (RCC10RGB) of over 4000 nM and an IC50 (HuTu80) of over 4000 nM. It also gave an IC50 (CW-2) of over 4000 nM, an IC50 (CTB-1) of 1620 nM and an IC50 (LNCaP-Clone-FGC) of over 4000 nM. It also gave an IC50 (L-363) of over 4000 nM, an IC50 (KLE) of over 4000 nM and an IC50 (Becker) of over 4000 nM. It also gave an IC50 (NCI-H526) of over 4000 nM, an IC50 (BE-13) of over 4000 nM and an IC50 (NMC-G1) of over 4000 nM. For the same compound, the IC50 (HAL-01) was over 4000 nM, the IC50 (D-263MG) was over 4000 nM and the IC50 (ML-2) was over 4000 nM. It also gave an IC50 (8-MG-BA) of over 4000 nM, an IC50 (C8166) of over 4000 nM and an IC50 (TE-1) of over 4000 nM. The IC50 (IA-LM) was 3210 nM, the IC50 (SK-NEP-1) was over 4000 nM and the IC50 (RH-1) was over 4000 nM. For the same compound, the IC50 (LU-139) was over 4000 nM, the IC50 (J-RT3-T3-5) was over 4000 nM and the IC50 (DMS-79) was over 4000 nM. For the same compound, the IC50 (MOLT-16) was over 4000 nM, the IC50 (KARPAS-45) was over 4000 nM and the IC50 (TE-6) was over 4000 nM. For the same compound, the IC50 (COLO-684) was over 4000 nM, the IC50 (RPMI-8866) was over 4000 nM and the IC50 (HCC1187) was over 4000 nM. For the same compound, the IC50 (MFM-223) was over 4000 nM, the IC50 (SK-N-FI) was over 4000 nM and the IC50 (D-247MG) was over 4000 nM. It also gave an IC50 (GOTO) of over 4000 nM, an IC50 (LB373-MEL-D) of over 4000 nM and an IC50 (NH-12) of over 4000 nM. It also gave an IC50 (BB65-RCC) of over 4000 nM, an IC50 (JAR) of over 4000 nM and an IC50 (MEG-01) of over 4000 nM. For the same compound, the IC50 (IST-MES1) was over 4000 nM, the IC50 (LS-123) was over 4000 nM and the IC50 (ONS-76) was over 4000 nM. It also gave an IC50 (BV-173) of over 4000 nM, an IC50 (COLO-824) of over 4000 nM and an IC50 (KY821) of 3680 nM. It also gave an IC50 (SNU-5) of over 4000 nM and an IC50 (EW-11) of over 4000 nM.
For `OCCCNc1cc(-c2ccnc(Nc3cccc(Cl)c3)n2)ccn1`, the IC50 (SNU-C2B) was 104 nM, the IC50 (RCC10RGB) was 111 nM and the IC50 (HuTu80) was 20.2 nM. It also gave an IC50 (CW-2) of over 256 nM, an IC50 (CTB-1) of 153 nM and an IC50 (LNCaP-Clone-FGC) of over 256 nM. For the same compound, the IC50 (L-363) was 92.6 nM, the IC50 (KLE) was 55.6 nM and the IC50 (Becker) was 47.9 nM. The IC50 (NCI-H526) was over 256 nM, the IC50 (BE-13) was 76.9 nM and the IC50 (NMC-G1) was 32.3 nM. The IC50 (HAL-01) was 66 nM, the IC50 (D-263MG) was over 256 nM and the IC50 (ML-2) was over 256 nM. It also gave an IC50 (8-MG-BA) of 56 nM, an IC50 (C8166) of over 256 nM and an IC50 (TE-1) of over 256 nM. For the same compound, the IC50 (IA-LM) was 93.2 nM, the IC50 (SK-NEP-1) was 80.9 nM and the IC50 (RH-1) was over 256 nM. It also gave an IC50 (LU-139) of 131 nM, an IC50 (J-RT3-T3-5) of 83.2 nM and an IC50 (DMS-79) of over 256 nM. It also gave an IC50 (MOLT-16) of over 256 nM, an IC50 (KARPAS-45) of 104 nM and an IC50 (TE-6) of over 256 nM. It also gave an IC50 (COLO-684) of 94.9 nM, an IC50 (RPMI-8866) of 73.8 nM and an IC50 (HCC1187) of over 256 nM. For the same compound, the IC50 (MFM-223) was over 256 nM, the IC50 (SK-N-FI) was over 256 nM and the IC50 (D-247MG) was over 256 nM. For the same compound, the IC50 (GOTO) was 74.9 nM, the IC50 (LB373-MEL-D) was 209 nM and the IC50 (NH-12) was over 256 nM. It also gave an IC50 (BB65-RCC) of 60.1 nM, an IC50 (JAR) of 81.8 nM and an IC50 (MEG-01) of 126 nM. The IC50 (IST-MES1) was 135 nM, the IC50 (LS-123) was 93 nM and the IC50 (ONS-76) was 76.1 nM. The IC50 (BV-173) was 144 nM, the IC50 (COLO-824) was over 256 nM and the IC50 (KY821) was 90.5 nM. For the same compound, the IC50 (SNU-5) was over 256 nM and the IC50 (EW-11) was over 256 nM.
